Experimental data taken from patent US20040042961A1, “Development of an in vivo functional assay for proteases” (priority 2002, published 2004).
Entries after “also recorded” stand apart in the source; their conditions may differ. Residues, ends and D or L forms follow the SMILES beside them. *: point of attachment. Cbz = O=C(OCc1ccccc1)*; CHN2 = [N-]=[N+]=C*; CH2F = FC*

Tests used:
cathepsin L [1] = molecular target: T1, cathepsin L (Homo sapiens, UniProt P07711); assay: Intracellular cathepsin L assay, wild type preprocathepsin L-GFP in HeLa-rtTA cells, 96-well plate reader; assay type: cell-based; conditions: 48 h; for Effect on overall level of GFP fluorescence: 0-60 μM
T1 construct: The C-terminus of the full length human preprocathepsin L is fused in frame to the N-terminus of GFP; GFP (Aequorea victoria, F64L/S65C/I167T/K238N) via BglII-NheI linker (C); expressed in transfected cells
T1 sequence (P07711 18-333 limits assumed): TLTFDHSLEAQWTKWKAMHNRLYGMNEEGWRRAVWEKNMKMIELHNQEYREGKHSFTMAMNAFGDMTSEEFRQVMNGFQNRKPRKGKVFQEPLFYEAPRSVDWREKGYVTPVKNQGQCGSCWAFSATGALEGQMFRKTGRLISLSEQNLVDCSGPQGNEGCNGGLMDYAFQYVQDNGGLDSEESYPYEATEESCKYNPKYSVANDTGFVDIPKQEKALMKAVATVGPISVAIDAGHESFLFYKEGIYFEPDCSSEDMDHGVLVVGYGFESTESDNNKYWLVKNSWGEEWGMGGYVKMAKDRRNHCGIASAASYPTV
Experimental: (§1) Adaptation of the assay to a 96-well plate format—The intracellular assay was performed in a 96-well microplate format using a plate reader to monitor GFP fluorescence. Three different inhibitors were used for the plate assay: Cbz-LeuLeuTyr-CHN2, Cbz-LeuLeuTyr-CH2F and E-64. These compounds are all irreversible inhibitors of cysteine proteases. Prior to measuring the fluorescence, the stably transfected pools of HeLa-rtTA cells were induced with doxycycline and cultured in presence of various concentrations of the inhibitors for 48 h.
(§2) FIG. 15 Adaptation of the intracellular assay to a high-throughput screening format. The assay was carried out in a 96-well microplate and fluorescence was measured using the Cytofluor. The expression of GFP fusion proteins was induced for 48 h in the presence of several inhibitors. Cell viability was determined using the MTT dye reduction assay. The average of triplicate values and the standard deviation for fluorescence and cell viability were expressed as a function of inhibitor concentration. Panel A. Relative fluorescence (fold/control) of cells expressing the wild-type preprocathepsin L-GFP fusion protein treated with various inhibitors. Panel B. The relative fluorescence of cells expressing the mutant preprocathepsin L-GFP (C25A) fusion protein in response to treatment with several inhibitors. Panel C. Percentage of viable cells expressing the wild type fusion protein after treatment with inhibitors. […]
Proteolytic Assays—For in vitro assays, purified GFP-His protein (100 μg) was incubated with 400 nM cathepsin L for 4.5 h. Aliquots were analyzed periodically to monitor the fluorescence using a CytoFluor plate reader (PerSeptive Biosystems, Framingham, Mass.) with cut-off filters of 488 nm (excitation) and […] (emission). […] For cell-based assays, stably transfected HeLa cells (stable pools) of either wild type cathepsin L-GFP or mutant cathepsin L-GFP fusions were grown in presence or absence of cathepsin inhibitors, and GFP fluorescence was monitored with various detection methods. […] Cells from one set of plates were harvested by trypsinization, resuspended in PBS, and GFP fluorescence was subsequently determined with flow cytometry. […] The cells were grown for an additional 24 h and GFP fluorescence was measured as described above. For detection with the CytoFluor plate reader, cells (400,000 cells/ml) in a total volume of 250 μl per well, were cultured in 96-well microplates. […] After the removal of medium, 200 μl of PBS was added to each well and the plates were scanned to monitor GFP fluorescence. Background fluorescence was determined from negative control cells (-doxycycline), and was subtracted from the fluorescence values obtained from induced cells that were cultured with various concentrations of inhibitors.

HeLa-rtTA cells = assay: Cell viability, MTT dye reduction assay; assay type: cell-based; conditions: 48 h; for Effect on cell viability: 0-60 μM, wild type and mutant fusion cells; for Cell viability: 60 μM
Experimental: FIG. 15 Adaptation of the intracellular assay to a high-throughput screening format. The assay was carried out in a 96-well microplate and fluorescence was measured using the Cytofluor. The expression of GFP fusion proteins was induced for 48 h in the presence of several inhibitors. Cell viability was determined using the MTT dye reduction assay. The average of triplicate values and the standard deviation for fluorescence and cell viability were expressed as a function of inhibitor concentration. Panel A. Relative fluorescence (fold/control) of cells expressing the wild-type preprocathepsin L-GFP fusion protein treated with various inhibitors. Panel B. The relative fluorescence of cells expressing the mutant preprocathepsin L-GFP (C25A) fusion protein in response to treatment with several inhibitors. Panel C. Percentage of viable cells expressing the wild type fusion protein after treatment with inhibitors. Panel D. The percentage of viable cells expressing the mutant fusion protein as described in Panel C.
Cell Viability Assay—The number of viable cells was evaluated by the MTT dye reduction assay with modification (24). In the presence of various concentrations of inhibitors, cells were grown in 96-well plates for 48 h. MTT reagent was then added to a final concentration of 0.5 mg/ml, and incubation at 37° C. in 5% CO2 was continued for 4 h. The resulting insoluble formazan crystals were solubilized by resuspending the cells in 100 μl of DMSO per well. Absorbance of converted dye was measured at 550/690 nm on SpectraMAX 250 (Molecular Devices). Assay values obtained from control cells were taken as 100%.

[2] = molecular target: T2, non-active preprocathepsin L (C25A) mutant (Homo sapiens, UniProt P07711, C138A); assay: Control, mutant preprocathepsin L-GFP (C25A) in HeLa-rtTA cells, FACS; assay type: cell-based; conditions: inactive cathepsin L (C25A), up to 35 μM inhibitor, 48 h
T2 construct: The C-terminus of the full length human preprocathepsin L is fused in frame to the N-terminus of GFP; GFP (Aequorea victoria, F64L/S65C/I167T/K238N) via BglII-NheI linker (C); expressed in transfected cells
Experimental: (§3) A potent cathepsin L irreversible inhibitor, Cbz-LeuLeuTyr-CHN2, was also used in this experiment. To induce cathepsin L-GFP expression, the cells were cultured in the presence of doxycycline for 48 h. […] Fluorescence that corresponds to GFP, however, is found in the peaks at higher fluorescence levels (FIGS. 13B,C). This can be observed in all cell populations expressing GFP. […] In the absence of inhibitor, the active enzyme hydrolyzes most of the GFP substrate, resulting in low fluorescence levels. […] It must be noted also that the low level of cellular fluorescence increases slightly in presence of the inhibitor, possibly due to effects on cellular events.
(§4) FIG. 13 Characterization of GFP fluorescence by FACS analysis. Expression of GFP fusion proteins was induced in the presence or absence of Z-Leu-Leu-Tyr-CHN2 inhibitor for 48 h, and the fluorescence was measured by FACS . Panel A. The fluorescence histograms of non-30 transfected HeLa-rtTA cells, cultured in absence (shaded) or in presence of 35 μM inhibitor (superimposed). A shift of the superimposed histogram depicts an increase of the background fluorescence in response to the inhibitor (see text for more details). Panel B. The fluorescence histograms of cells expressing the mutant preprocathepsin L-GFP (C25A) fusion protein, grown in absence (shaded) and in presence (superimposed) of 35 μM inhibitor. Panel C. […]

cathepsin L [3] = molecular target: T1, cathepsin L; assay: Intracellular cathepsin L assay, wild type preprocathepsin L-GFP in HeLa-rtTA cells, FACS; assay type: cell-based; conditions: 48 h
Experimental: as §3, §4

[4] = molecular target: T2, non-active preprocathepsin L (C25A) mutant; assay: Control, mutant preprocathepsin L-GFP (C25A) in HeLa-rtTA cells, 96-well plate reader; assay type: cell-based; conditions: 0-60 μM, 48 h
Experimental: as §1
as §2, with “C.” for “C. Percentage of viable cells expressing the wild type fusion protein after treatment with inhibitors.”

caspase 8 = molecular target: T3, caspase 8 (Homo sapiens, UniProt Q14790); assay: Cell-based assay for caspase 8 in Jurkat cells (GFP double mutant, anti-Fas Ab, guanidine-HCl)
T3 construct: endogenous in cells; host or cells: Jurkat-rtTA cells
Description: Two factors are particularly important for the successful conversion of GFP into a preferred protease substrate: (i) the cleavage of the accessible substrate recognition sequence and (ii) the susceptibility of the cleaved GFP relative to the intact (non-cleaved) GFP towards unfolding. In the present work, it was preferred to introduce two cleavage sites in order to sufficiently destabilize GFP so that rapid unfolding could be observed at pH 5.5 in vitro. This is represented by a Scheme in FIG. 6. FIG. 6 is a graphical depiction of fluorescence as a function of the duration of exposure to guanidine-HCl. The assay was performed in Jurkat cells, using an anti-Fas Ab for caspase 8 activation. The assay is run in a 96-well plate format, using the Cytofluor plate reader. […] Without addition of Guanidine-HCl, no change in fluorescence was observed. However, a functional cellular assay (i.e. with a fluorescence readout) was obtained by incubating the cells with the denaturing agent Guanidine-HCl prior to analysis.
Without addition of Guanidine-HCl, no change in fluorescence is observed. However, a functional cellular assay (i.e. with a fluorescence readout) was obtained by incubating the cells with the denaturing agent Guanidine-HCl prior to analysis (FIG. 6).
The assay was performed in Jurkat cells and the GFP substrate was delivered by means of transient transfection. […]

T2 sequence (P07711 114-333 C138A): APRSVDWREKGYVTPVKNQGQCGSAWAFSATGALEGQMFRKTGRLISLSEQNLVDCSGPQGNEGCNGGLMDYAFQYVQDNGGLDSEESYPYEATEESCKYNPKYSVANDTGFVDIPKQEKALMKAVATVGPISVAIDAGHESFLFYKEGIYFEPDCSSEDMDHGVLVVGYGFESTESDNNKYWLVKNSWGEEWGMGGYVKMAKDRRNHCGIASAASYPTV
T3 sequence (Q14790 217-374 limits assumed): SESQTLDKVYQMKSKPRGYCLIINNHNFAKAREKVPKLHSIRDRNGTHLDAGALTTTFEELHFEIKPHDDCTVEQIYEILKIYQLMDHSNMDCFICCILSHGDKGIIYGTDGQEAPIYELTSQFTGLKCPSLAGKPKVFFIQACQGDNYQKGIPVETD
T3 sequence (Q14790 385-479 limits assumed): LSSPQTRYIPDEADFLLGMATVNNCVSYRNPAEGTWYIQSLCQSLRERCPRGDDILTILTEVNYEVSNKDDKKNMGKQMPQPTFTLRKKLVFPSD

Row | Effect on overall level of GFP fluorescence (cathepsin L [1]) | Fluorescence increase relative to control cells without inhibitor (cathepsin L [1]; 60 μM) [fold] | GFP fluorescence (cathepsin L [3]; 35 μM inhibitor, doxycycline) | Increase of fluorescence (fluorescence index) (cathepsin L [3]; inhibitor concentration increased from 0 to 35 μM) | Fluorescence of cells expressing mutant non-active fusion protein [4] | Response of fluorescence with inhibitor concentration (caspase 8; Fas-dependent hydrolysis of GFP, guanidine-HCl before reading) | Hydrolysis of GFP mutant in response to Fas-induced apoptosis (caspase 8; Jurkat-rtTA cells, Western with polyclonal anti-GFP Ab) | Compound | Effect on cell viability (HeLa-rtTA cells) | Cell viability (HeLa-rtTA cells) | GFP fluorescence [2]
1 | no significant effect | – | – | – | – | – | – | CC(C)C[C@H](NC(=O)[C@H]1O[C@@H]1C(=O)O)C(=O)NCCCCN=C(N)N (relative stereo) [E-64, N-[N-(L-3-trans-carboxyoxirane-2-carbonyl)-L-leucyl]amino-4-guanidinobutane] | Almost no effect | – | –
2 | no significant effect | – | – | – | – | – | – | CC(C)C[C@H](NC(=O)OCc1ccccc1)C(=O)N[C@@H](CC(C)C)C(=O)N[C@@H](Cc1ccc(O)cc1)C(=O)CF [Cbz-LeuLeuTyr-CH2F] (Cbz-Leu-Leu-Tyr-CH2F) | inversely proportional to the inhibitor concentration | approximately 50% | –
3 | dose-dependent increase | 20 | significant increase | up to 5 fold | small increase | – | – | CC(C)C[C@H](NC(=O)OCc1ccccc1)C(=O)N[C@@H](CC(C)C)C(=O)N[C@@H](Cc1ccc(O)cc1)C(=O)C=[N+]=[N-] [Cbz-LeuLeuTyr-CHN2] (Cbz-Leu-Leu-Tyr-CHN2) | inversely proportional to the inhibitor concentration | approximately 50% | virtually no change; also recorded: remained unchanged
4 | – | – | – | – | – | dose-dependent response | inhibited | COC(=O)C[C@H](NC(=O)[C@H](C)NC(=O)[C@@H](NC(=O)OCc1ccccc1)C(C)C)C(=O)CF [Z-VAD-FMK] (Cbz-Val-Ala-Asp(OMe)-CH2F) | – | – | –
